Measurements reported in the supplement of paper PMC11061612.

What was measured:
[1] = tested on: CAMA-1 (Breast Carcinoma); assay: combination Emax (second highest fraction inhibited in the dose matrix, 72 h); higher = more inhibition; extreme values may be limits of the assay
Procedure, shortened: (§1)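 Cell lines grown in DMEM/F12 or RPMI with 10% FBS were plated in 1536-well plates and held 24 hours at 37°C, 5% CO2 before 72 hours of exposure to two-drug dose matrices, with DMSO typically at 0.2%. CellTiter-Glo 2.0 luminescence gave viability, which was converted to inhibition. Vehicle wells were set to 0 and blank wells to 1. Combination Emax is the second-highest inhibition in the matrix, and Bliss excess is the observed combination effect minus the expected EA + EB − EA·EB, where EA and EB are the single-agent effects.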

[2] = tested on: SR (Other Blood Carcinomas); assay: as above
Procedure, shortened: as §1

[3] = tested on: NCI-H1792 (Lung Adenocarcinoma); assay: as above
Procedure, shortened: as §1

WM-115 (Melanoma) [4] = assay: as above
Procedure, shortened: as §1

[5] = tested on: BL-41 (Burkitt's Lymphoma); assay: as above
Procedure, shortened: as §1

ES8 (Ewing's Sarcoma) [6] = assay: as above
Procedure, shortened: as §1

[7] = tested on: MKN28 (Gastric Carcinoma); assay: as above
Procedure, shortened: as §1

[8] = tested on: GR-ST (B-Lymphoblastic Leukemia); assay: as above
Procedure, shortened: as §1

ES1 (Ewing's Sarcoma) [9] = assay: as above
Procedure, shortened: as §1

[10] = tested on: SW1417 (Colorectal Carcinoma); assay: as above
Procedure, shortened: as §1

[11] = tested on: K-562 (Chronic Myelogenous Leukemia); assay: as above
Procedure, shortened: as §1

WIL2-NS (Non-Cancerous) [12] = assay: as above
Procedure, shortened: as §1

[13] = tested on: SW837 (Colorectal Carcinoma); assay: as above
Procedure, shortened: as §1

[14] = tested on: BFTC-905 (Bladder Carcinoma); assay: as above
Procedure, shortened: as §1

[15] = tested on: L-540 (Hodgkin's Lymphoma); assay: as above
Procedure, shortened: as §1

[16] = tested on: DND-41 (T-Lymphoblastic Leukemia); assay: as above
Procedure, shortened: as §1

NCI-H2818 (Mesothelioma) [17] = assay: as above
Procedure, shortened: as §1

[18] = tested on: CAMA-1 (Breast Carcinoma); assay: Bliss excess, mean over the matrix (fraction); higher = more synergy
Procedure, shortened: as §1

[19] = tested on: SR (Other Blood Carcinomas); assay: as above
Procedure, shortened: as §1

[20] = tested on: NCI-H1792 (Lung Adenocarcinoma); assay: as above
Procedure, shortened: as §1

WM-115 (Melanoma) [21] = assay: as above
Procedure, shortened: as §1

[22] = tested on: BL-41 (Burkitt's Lymphoma); assay: as above
Procedure, shortened: as §1

ES8 (Ewing's Sarcoma) [23] = assay: as above
Procedure, shortened: as §1

[24] = tested on: MKN28 (Gastric Carcinoma); assay: as above
Procedure, shortened: as §1

[25] = tested on: GR-ST (B-Lymphoblastic Leukemia); assay: as above
Procedure, shortened: as §1

ES1 (Ewing's Sarcoma) [26] = assay: as above
Procedure, shortened: as §1

[27] = tested on: SW1417 (Colorectal Carcinoma); assay: as above
Procedure, shortened: as §1

[28] = tested on: K-562 (Chronic Myelogenous Leukemia); assay: as above
Procedure, shortened: as §1

WIL2-NS (Non-Cancerous) [29] = assay: as above
Procedure, shortened: as §1

[30] = tested on: SW837 (Colorectal Carcinoma); assay: as above
Procedure, shortened: as §1

[31] = tested on: BFTC-905 (Bladder Carcinoma); assay: as above
Procedure, shortened: as §1

[32] = tested on: L-540 (Hodgkin's Lymphoma); assay: as above
Procedure, shortened: as §1

[33] = tested on: DND-41 (T-Lymphoblastic Leukemia); assay: as above
Procedure, shortened: as §1

NCI-H2818 (Mesothelioma) [34] = assay: as above
Procedure, shortened: as §1
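Throughout, for Bliss excess, mean over the matrix: after 72 h of two-drug dosing.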

Row | Structure (SMILES) | combination Emax [1] | combination Emax [2] | combination Emax [3] | combination Emax (WM-115 (Melanoma) [4]) | combination Emax [5] | combination Emax (ES8 (Ewing's Sarcoma) [6]) | combination Emax [7] | combination Emax [8] | combination Emax (ES1 (Ewing's Sarcoma) [9]) | combination Emax [10] | combination Emax [11] | combination Emax (WIL2-NS (Non-Cancerous) [12]) | combination Emax [13] | combination Emax [14] | combination Emax [15] | combination Emax [16] | combination Emax (NCI-H2818 (Mesothelioma) [17]) | Bliss excess [18] | Bliss excess [19] | Bliss excess [20] | Bliss excess (WM-115 (Melanoma) [21]) | Bliss excess [22] | Bliss excess (ES8 (Ewing's Sarcoma) [23]) | Bliss excess [24] | Bliss excess [25] | Bliss excess (ES1 (Ewing's Sarcoma) [26]) | Bliss excess [27] | Bliss excess [28] | Bliss excess (WIL2-NS (Non-Cancerous) [29]) | Bliss excess [30] | Bliss excess [31] | Bliss excess [32] | Bliss excess [33] | Bliss excess (NCI-H2818 (Mesothelioma) [34])
1 | O=C(c1cc(Cc2n[nH]c(=O)c3ccccc23)ccc1F)N1CCN(C(=O)C2CC2)CC1 [Olaparib] + Cc1c2c(nn1C)CSCc1cc(n(C)n1)CSc1cc(c3ccccc3c1)OCCCc1c(C(=O)O)n(C)c3c-2c(Cl)ccc13 [AZD5991] (first compound max 10 µM, 7x7, partner max 1 µM) | 0.706 | 0.943 | 0.201 | 0.146 | 1 | 0.958 | 0.0875 | 0.515 | 0.98 | 0.0852 | 0.0695 | 0.299 | 0.136 | 0.178 | 1 | 0.174 | 0.169 | 0.0094 | 0.0384 | -0.041 | -0.0678 | 0.0012 | -0.0085 | -0.0498 | -0.0352 | 0.0139 | -0.0315 | -0.0125 | -0.0181 | -0.0524 | -0.0279 | 0.0143 | -0.0059 | -0.0446
2 | N#Cc1cnc(Nc2cc(NC[C@H]3CNCCO3)c(C(F)(F)F)cn2)cn1 [SRA737] + C=CCn1c(=O)c2cnc(Nc3ccc(N4CCN(C)CC4)cc3)nc2n1-c1cccc(C(C)(C)O)n1 [AZD1775] (first compound max 10 µM, partner max 1 µM) | 0.442 | 1 | 0.864 | 0.356 | 1 | 0.884 | 0.504 | 0.864 | 0.993 | 0.537 | 0.967 | 0.968 | 0.725 | 0.777 | 0.921 | 0.949 | 0.299 | 0.0672 | 0.029 | 0.0434 | -0.0524 | 0.0924 | 0.144 | 0.0204 | 0.0215 | 0.118 | 0.0127 | 0.0463 | 0.102 | 0.0157 | 0.0526 | 0.0404 | 0.104 | -0.0129
3 | N#Cc1cnc(Nc2cc(NC[C@H]3CNCCO3)c(C(F)(F)F)cn2)cn1 [SRA737] + Nc1ccn([C@@H]2O[C@H](CO)[C@@H](O)C2(F)F)c(=O)n1 [Gemcitabine] (first compound max 10 µM, 7x7, partner max 0.3 µM) | 0.455 | 1 | 0.922 | 0.501 | 1 | 1 | 0.575 | 0.871 | 1 | 0.685 | 0.933 | 0.983 | 0.75 | 0.868 | 0.962 | 0.908 | 0.473 | 0.0294 | 0.0325 | 0.0436 | -0.0214 | -0.0522 | 0.0504 | 0.032 | 0.0024 | 0.0419 | 0.0613 | 0.0559 | -0.0384 | 0.121 | 0.0034 | 0.0222 | -0.0197 | 0.0002
4 | N#Cc1cnc(Nc2cc(NC[C@H]3CNCCO3)c(C(F)(F)F)cn2)cn1 [SRA737] + O=c1[nH]cc(F)c(=O)[nH]1 [5-Fluorouracil] (first compound max 10 µM, 7x7, partner max 20 µM) | 0.314 | 0.959 | 0.84 | 0.255 | 1 | 0.611 | 0.381 | 0.817 | 0.982 | 0.238 | 0.893 | 0.957 | 0.497 | 0.278 | 0.936 | 0.946 | 0.239 | 0.0209 | -0.0128 | 0.0523 | -0.0753 | 0.0042 | 0.0404 | 0.0222 | -0.0636 | 0.0525 | 0.0018 | -0.0202 | 0.0182 | 0.0162 | 0.0197 | -0.0581 | 0.0434 | -0.0232
